Residues, ends and D or L forms follow the SMILES beside them.
Key:
[1] = molecular target: T1, peptide 551-574 coated on CM5 chips (Mus musculus, UniProt Q08481); test: Surface plasmon resonance (BIAcore) homophilic binding of peptide 551-574; settings: homophilic interaction
T1 construct: made in house; host or cells: chemical synthesis (no expression host)
Description: Homophilic binding association and dissociation constants were calculated by surface plasmon resonance (BIAcore® 2000, GE). In brief, peptide 551-574 was coated at 3400 resonance units (RU) on CM5 chips according to the manufacturer's instructions. Soluble peptide 551-574 (12.5, 25, 50 and 100 μM in 200 μl of 10 mM HEPES pH 7.4, 150 mM NaCl, 0.005% Tween 20) was injected at 20 μl/min at 25° C., on the peptide-coated channel and on an uncoated channel. Dissociation was monitored for 300 seconds. Association (kon) and dissociation (koff) constants were calculated using the BlAevaluation® 3.0 Software (GE).

[2] = test system: scramble peptide; test: Surface plasmon resonance (BIAcore), channel coated with the scramble peptide; type: binding; settings: injection of soluble peptide
[3] = test system: MMP-2/9 (gelatinase) activity in bone-marrow derived macrophages; test: Macrophage gelatinase (MMP-2/9) activity; type: cell-based, mouse; settings: peptide 50 μM
Description: (§1) CD8^+ T cell-mediated cytolytic activity against allogeneic mouse aortic smooth muscle cells and measurement of macrophage gelatinase (MMP-2/9) activity were performed as previously described for human cells in Caligiuri et al. (2006 Arterioscler Thromb Vasc Biol 26:618-623) using kits and reagents from Invitrogen. Briefly, primary cultures of FVB/N mouse aorta smooth muscle cells were labelled with the lipophylic tracer DIO (green) and co-cultured for 3 hours with CD8+ T cell-enriched spleen cells from C57Bl/6 mice (n=3 scramble peptide and n=3 peptide 551-574, 50 μM). Cytolysis was evaluated by intracellular accumulation of propidium iodide (PI). Cells were analysed by flow cytometry and the % of cytolysis was calculated by expressing the number of dead (PI+) cells among the target (DIO+) cells. Intracellular MMP-2/9 (gelatinase) activity was measured by flow cytometry in 7-day bone-marrow derived macrophages from C57Bl/6 mice (n=3 scramble peptide and n=3 peptide 551-574, 50 μM) three hours after the incorporation of OregonGreen® gelatine (MFI). […] (^3H) thymidine (0.5 μCi/well) was added for the last 16 hours and proliferation evaluated using a Tomtec harvester and analysis on a Wallac micro beta counter. Data are expressed as mean±SEM of cpm in triplicates.

[4] = test system: C57BL/6J mice immunized with MOG35-55 peptide; test: Experimental Autoimmune Encephalomyelitis (EAE) model; type: in vivo, mouse; settings: single peptide shot
Description: Twelve-week old female C57BL/6J mice were immunized with 300 μg of MOG35-55 peptide emulsified in Complete Freund's Adjuvant 1:1 by volume containing 800 μg of nonviable desiccated Mycobacterium tuberculosis H37RA. A final volume of 200 μl of the emulsion was injected subcutaneously at 4 sites (50 μl/site) over the flanks. In addition, 300 ng of Pertussis toxin was injected intravenously (retro-orbital plexus) on the same day and 2 days later. Clinical signs of EAE ware assessed daily by the following scoring system: 0, no signs; 1, hindlimb weakness; 2, hindlimb weakness and tail paralysis; 3, hindlimb and tail paralysis; 4, hindlimb and tail paralysis and forelimb weakness; 5, moribund state; and 6, death. The peak (waxing phase) occured around day 21. In this C57BL/6J mouse model, there was no waning phase as assessed in our laboratory up to day 41.
The experiment was carried out with ten mice per group. The mice of each group were treating with either of: • PBS; • PepReg (SEQ ID NO: 3); or • PepScra (SEQ ID NO: 14).
The dosing was of 50 μg of peptide per mice and per day (i.e. about 2 mg/Kg per day). The peptide was administered by a subcutaneous injection.

[5] = test system: BALB/c mice primed with TNCB; test: Delayed type hypersensitivity (DTH) suppression model; type: in vivo, mouse
Description: Delayed type hypersensitivity (DTH) suppression was evaluated as described in the “Current Protocols in Immunology (2001) 4.0.1-4.0.2 Unit 4.2”. Briefly, TNCB (2-chloro-1,3,5-trinitrobenzene, Fluka #79874) was dissolved in acetone/olive oil (1:1 v/v) at a concentration of 10 mg/ml. BALB/c mice (n=6/group) were primed by painting the shaved regions of the abdomen a with a total 0.2 ml of the preparation (n=6/group). The experiment included 3 groups for peptide 551-574 (10, 50, 100 μM) and 1 group treated with scramble peptide at 100 μM). Five days after priming, 10 μl of the TNCB-solvent mixture was painted on the right pinna, 30 minutes after subcutaneous (interscapolar) administration of the peptide 551-574 or the scramble peptide. Ear thickness increases were calculated by subtracting the thickness of the right and the left pinna of each mouse (right-left/left×100), measured at 24 h with a dial caliper (“Pocotest”, Kroeplin Längenmesstechnick). The measure was performed 5 times on each ear and averaged for further analysis. The immunosuppressive effect of the peptide was calculated as % suppression=(1−ΔTE/ΔTS)×100, where ΔT=(ear thickness 24 hr after elicitation)−(baseline ear thickness), […]. Data are expressed as mean±SEM.

[6] = test system: spleen cells from CD31^−/− mice; test: Proliferation in response to TCR stimulation, CD31-/- spleen cells; type: cell-based, mouse
Description: CD8^+ T cell-mediated cytolytic activity against allogeneic mouse aortic smooth muscle cells and measurement of macrophage gelatinase (MMP-2/9) activity were performed as previously described for human cells in Caligiuri et al. (2006 Arterioscler Thromb Vasc Biol 26:618-623) using kits and reagents from Invitrogen. Briefly, primary cultures of FVB/N mouse aorta smooth muscle cells were labelled with the lipophylic tracer DIO (green) and co-cultured for 3 hours with CD8+ T cell-enriched spleen cells from C57Bl/6 mice (n=3 scramble peptide and n=3 peptide 551-574, 50 μM). Cytolysis was evaluated by intracellular accumulation of propidium iodide (PI). Cells were analysed by flow cytometry and the % of cytolysis was calculated by expressing the number of dead (PI+) cells among the target (DIO+) cells. Intracellular MMP-2/9 (gelatinase) activity was measured by flow cytometry in 7-day bone-marrow derived macrophages from C57Bl/6 mice (n=3 scramble peptide and n=3 peptide 551-574, 50 μM) three hours after the incorporation of OregonGreen® gelatine (MFI). T-cell proliferation was performed using either human peripheral blood mononuclear cells of spleen cells from C57Bl/6 (CD31^+/+) and CD31^−/− mice (Charles River France) as previously described (Caligiuri et al. 2005 Arterioscler Thromb Vasc Biol 25:1659-1664). Briefly, cells were plated in triplicates at 0.2×10^6 cells/well in a U bottom 96-well plate in complete medium (RPMI 1640, 1% pyruvate, 1% glutamine, 1% penicillin-streptomicyne-fungizone, 10% decomplemented fetal calf serum, all from Invitrogen) containing 1 μg/ml anti-mouse CD3/CD28 or 5 μg/ml anti-human CD3 antibodies (BD) as appropriate. CD31 (551-574) and scramble peptide at 25, 50 and 100 μM final concentration were deposited in the wells just before cell plating. Plated cells were cultured for 72 hours in 5% CO2 at 37° C. (^3H) thymidine (0.5 μCi/well) was added for the last 16 hours and proliferation evaluated using a Tomtec harvester and analysis on a Wallac micro beta counter. Data are expressed as mean±SEM of cpm in triplicates.

[7] = test system: allogeneic mouse aortic smooth muscle cells; test: CD8+ T cell-mediated cytolytic activity against allogeneic smooth muscle cells; type: cell-based; settings: peptide 50 μM, 3 hours co-culture
Description: as §1

**Q.** `CSCC[C@H](NC(=O)[C@H](CO)NC(=O)[C@@H](N)CO)C(=O)N[C@@H](CCCNC(=N)N)C(=O)N[C@H](C(=O)N[C@@H](CO)C(=O)N1CCC[C@H]1C(=O)N[C@@H](CCCNC(=N)N)C(=O)N[C@@H](CO)C(=O)N[C@@H](CO)C(=O)N[C@H](C(=O)N[C@@H](CC(C)C)C(=O)N[C@@H](C)C(=O)N[C@H](C(=O)N[C@@H](CCCNC(=N)N)C(=O)N[C@H](C(=O)N[C@@H](Cc1ccccc1)C(=O)N[C@@H](CC(C)C)C(=O)N[C@@H](C)C(=O)N1CCC[C@H]1C(=O)N[C@@H](Cc1c[nH]c2ccccc12)C(=O)N[C@@H](CCCCN)C(=O)N[C@@H](CCCCN)C(=O)O)C(C)C)C(C)C)[C@@H](C)O)[C@@H](C)O` [peptide 551-574] (H-SSMRTSPRSSTLAVRVFLAPWKK-OH) was tested. Which kon ([1]; 25° C., analyte 12.5-100 μM, read-out: association constant (kon)) did it give?
**A.** Its kon is 134 ± 120 M⁻¹ s⁻¹.

**Q.** What about the koff ([1]; 25° C., read-out: dissociation constant (koff)) of the same compound?
**A.** The koff was 0.00158 s⁻¹.

**Q.** What about the Kd ([1]; read-out: affinity at equilibrium) of the same compound?
**A.** Its Kd is 17.8 ± 9.7 µM.

**Q.** And the “signal on a channel coated with the scramble peptide” value [2]?
**A.** Its value is “negligible signal”.

**Q.** What about the “activity of matrix degrading enzymes (MMP-2/9) in bone-marrow derived macrophages” value [3] of the same compound?
**A.** Its value is “inhibited”.

**Q.** What about the “duration of protective effect in EAE” value [4] of the same compound?
**A.** Its value is “up to 5 days”.

**Q.** And the “immunosuppression in DTH model” value ([5]; single subcutaneous administration of 50 μM)?
**A.** Its value is “Effective immunosuppression”.

**Q.** What about the “suppression of distal recall of a hapten-elicited specific immune response (ear thickness)” value ([5]; single subcutaneous administration, peptide 10, 50, 100 μM, scramble 100 μM) of the same compound?
**A.** The value was “suppressed in a dose-dependent manner”.

**Q.** What about the “proliferation of CD31-/- spleen cells” value ([6]; highest dose, 100 μM) of the same compound?
**A.** The value was “effect at 100 μM dose also on cells lacking CD31”.

**Q.** And the “proliferation of CD31-/- spleen cells” value ([6]; highest dose, 100 μM, listed as mouse CD31 peptide 551-574)?
**A.** The value was “only the highest dose of the peptide affect proliferation”.

**Q.** And the “proliferation of CD31-/- spleen cells” value ([6]; low dose of the peptide)?
**A.** The value was “no effect”.

**Q.** What about the “CD8+ T cell-dependent cytolysis of murine aortic smooth muscle cells” value [7] of the same compound?
**A.** Its value is “inhibited”.
